Each structure is given as a SMILES string.

Experiment [1] addresses T1, 5-hydroxytryptamine receptor 1A (Rattus norvegicus, UniProt P19327).
T1 sequence (P19327 whole entry): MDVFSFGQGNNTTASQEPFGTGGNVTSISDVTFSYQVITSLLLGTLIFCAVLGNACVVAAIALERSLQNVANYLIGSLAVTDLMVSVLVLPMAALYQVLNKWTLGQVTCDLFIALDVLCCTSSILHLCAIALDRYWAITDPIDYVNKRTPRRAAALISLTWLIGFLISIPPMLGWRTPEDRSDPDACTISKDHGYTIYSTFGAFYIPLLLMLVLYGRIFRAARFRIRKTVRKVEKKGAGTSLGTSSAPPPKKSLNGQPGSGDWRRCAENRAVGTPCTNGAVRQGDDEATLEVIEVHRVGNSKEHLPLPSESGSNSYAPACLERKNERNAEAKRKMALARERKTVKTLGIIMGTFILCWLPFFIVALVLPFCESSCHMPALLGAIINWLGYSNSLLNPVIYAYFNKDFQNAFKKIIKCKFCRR
The experiment in a line: In vitro binding affinity against serotonin 5-HT1A receptor in rat cerebral cortex membrane using [3H]8-OH-DPAT as radioligand. The experiment is classed as cell membranes.

Experiment [2] addresses D(2) dopamine receptor (Rattus norvegicus, UniProt P61169). The experiment in a line: In vitro binding affinity against Dopamine receptor D2 in rat striatum membrane using [3H]raclopride as radioligand. The experiment is classed as cell membranes.
Experiment [3] deals with T2, Adrenergic receptor alpha-1 (Rattus norvegicus, UniProt P15823+P23944+P43140).
T2 sequence (P15823 whole entry): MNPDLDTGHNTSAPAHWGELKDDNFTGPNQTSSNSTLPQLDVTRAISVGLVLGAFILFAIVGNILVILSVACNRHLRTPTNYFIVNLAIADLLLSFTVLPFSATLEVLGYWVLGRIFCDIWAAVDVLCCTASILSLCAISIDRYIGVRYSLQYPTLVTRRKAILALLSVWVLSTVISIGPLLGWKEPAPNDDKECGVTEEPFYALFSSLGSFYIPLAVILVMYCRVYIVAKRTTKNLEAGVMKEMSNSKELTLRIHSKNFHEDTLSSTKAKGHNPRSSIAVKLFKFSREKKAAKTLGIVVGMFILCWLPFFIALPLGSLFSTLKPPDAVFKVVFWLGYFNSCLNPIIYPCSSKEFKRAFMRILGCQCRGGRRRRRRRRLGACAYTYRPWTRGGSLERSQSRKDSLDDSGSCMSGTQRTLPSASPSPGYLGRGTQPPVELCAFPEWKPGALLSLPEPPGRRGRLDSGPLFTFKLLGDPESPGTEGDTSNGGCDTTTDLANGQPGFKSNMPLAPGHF
T2 sequence (P23944 whole entry): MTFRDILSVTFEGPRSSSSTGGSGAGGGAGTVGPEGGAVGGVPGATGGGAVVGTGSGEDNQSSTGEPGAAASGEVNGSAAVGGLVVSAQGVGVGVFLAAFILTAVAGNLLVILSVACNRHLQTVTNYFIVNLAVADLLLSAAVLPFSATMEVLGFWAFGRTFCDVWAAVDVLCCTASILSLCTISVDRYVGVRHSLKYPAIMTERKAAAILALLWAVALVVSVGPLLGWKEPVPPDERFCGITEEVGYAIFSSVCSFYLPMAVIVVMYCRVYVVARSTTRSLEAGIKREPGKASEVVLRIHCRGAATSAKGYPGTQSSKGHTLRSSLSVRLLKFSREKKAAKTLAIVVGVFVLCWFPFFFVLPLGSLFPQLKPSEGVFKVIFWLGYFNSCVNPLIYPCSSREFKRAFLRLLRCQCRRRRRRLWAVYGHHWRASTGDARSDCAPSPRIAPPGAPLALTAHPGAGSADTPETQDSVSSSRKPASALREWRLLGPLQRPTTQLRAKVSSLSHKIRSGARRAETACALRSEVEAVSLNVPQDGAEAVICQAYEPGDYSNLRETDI
T2 sequence (P43140 whole entry): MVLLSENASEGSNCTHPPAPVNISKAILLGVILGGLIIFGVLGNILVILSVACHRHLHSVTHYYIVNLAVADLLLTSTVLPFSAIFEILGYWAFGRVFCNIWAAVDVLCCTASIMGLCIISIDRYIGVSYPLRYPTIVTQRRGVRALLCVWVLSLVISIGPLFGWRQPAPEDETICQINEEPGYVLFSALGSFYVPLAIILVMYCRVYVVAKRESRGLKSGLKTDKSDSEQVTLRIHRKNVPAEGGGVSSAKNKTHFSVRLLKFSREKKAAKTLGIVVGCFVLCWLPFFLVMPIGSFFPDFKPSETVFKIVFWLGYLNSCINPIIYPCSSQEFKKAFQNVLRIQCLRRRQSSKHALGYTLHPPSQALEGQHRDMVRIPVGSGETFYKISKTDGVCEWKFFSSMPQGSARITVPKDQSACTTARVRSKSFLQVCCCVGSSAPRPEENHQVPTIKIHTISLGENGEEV
The experiment in a line: In vitro binding affinity against Alpha-1 adrenergic receptor in rat cerebral cortex membrane using [3H]prazosin as radioligand. The experiment is classed as cell membranes.

Experiment [4] concerns the target T2, Adrenergic receptor alpha-1. As to the kind of experiment: Antagonistic activity (pA2) at Alpha-1 adrenergic receptor in ring segments of rat thoracic aorta contracted by phenylephrine. It counts as functional, tissue-based.
For experiment [5], the species on record is Rattus norvegicus. The experiment in a line: Compound was evaluated for its ability to affect adenylyl cyclase activity in rat hippocampus slice preparation; agonist. Particulars: filed as agonist. It counts as functional.

Sequence of D(2) dopamine receptor (P61169 whole entry): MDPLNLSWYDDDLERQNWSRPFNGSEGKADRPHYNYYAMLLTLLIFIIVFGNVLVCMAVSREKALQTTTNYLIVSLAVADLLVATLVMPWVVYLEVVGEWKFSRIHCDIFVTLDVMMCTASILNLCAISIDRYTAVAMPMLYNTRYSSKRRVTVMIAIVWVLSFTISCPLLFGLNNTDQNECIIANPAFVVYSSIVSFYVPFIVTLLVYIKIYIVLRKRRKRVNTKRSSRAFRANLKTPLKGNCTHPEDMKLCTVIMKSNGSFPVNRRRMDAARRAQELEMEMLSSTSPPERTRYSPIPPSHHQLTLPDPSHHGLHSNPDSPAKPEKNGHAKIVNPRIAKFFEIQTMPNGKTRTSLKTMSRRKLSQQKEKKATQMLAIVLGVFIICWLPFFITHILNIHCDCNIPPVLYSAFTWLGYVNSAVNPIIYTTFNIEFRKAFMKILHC

For the compound `O=C1CC(=C(c2ccccc2)c2ccccc2)C(=O)N1CCCN1CCN(c2ccccc2)CC1`, the inhibition constant Ki in experiment [1] was above 1000 nM; in experiment [2], above 1000 nM; in experiment [3], 5.7 nM. The same compound yielded a pA2 in experiment [4] of 7.79.

On to `COc1ccccc1N1CCN(CCN2C(=O)CC(=C(c3ccccc3)c3ccccc3)C2=O)CC1`, for which the Ki was 286 nM in experiment [1], 167 nM in experiment [2] and 71.5 nM in experiment [3].

For the compound `COc1ccccc1N1CCN(CN2C(=O)CC(=C(c3ccccc3)c3ccccc3)C2=O)CC1`, the Ki is 93.8 nM in experiment [1], above 1000 nM in experiment [2] and above 1000 nM in experiment [3].

With `O=C1CC(=C(c2ccccc2)c2ccccc2)C(=O)N1CCN1CCN(c2ccc(F)cc2)CC1`, the Ki in experiment [1] was above 1000 nM; in experiment [2] it was above 1000 nM; in experiment [3], 529 nM.

`O=C1CC(=C(c2ccccc2)c2ccccc2)C(=O)N1CCN1CCN(c2cccc(C(F)(F)F)c2)CC1`: the Ki in experiment [1], in experiment [2] and in experiment [3] was above 1000 nM in each case.

For the compound `O=C1CC(=C(c2ccccc2)c2ccccc2)C(=O)N1CCCN1CCN(c2cccc(C(F)(F)F)c2)CC1`, the results for the Ki in experiment [1], in experiment [2] and in experiment [3] were above 1000 nM, above 1000 nM and 62.7 nM, respectively.

Regarding `O=C1CC(=C(c2ccccc2)c2ccccc2)C(=O)N1CN1CCN(c2cccc(C(F)(F)F)c2)CC1`, the results for the Ki in experiment [1], in experiment [2] and in experiment [3] were 59.6 nM, above 1000 nM and above 1000 nM, respectively. Also, the Activity result in experiment [5] is “Agonist”.

On to `O=C1CC(=C(c2ccccc2)c2ccccc2)C(=O)N1CCCCN1CCN(c2ccccc2)CC1`, for which the Ki is 125 nM in experiment [1], above 1000 nM in experiment [2] and 6.4 nM in experiment [3].

With `O=C1CC(=C(c2ccccc2)c2ccccc2)C(=O)N1CCCN1CCN(c2ccc(F)cc2)CC1`, the inhibition constant (Ki) in experiment [1] was above 1000 nM; in experiment [2], above 1000 nM; in experiment [3] it was 8.3 nM. This compound also displayed a pA2 in experiment [4] of 8.63.

Turning to `O=C1CC(=C(c2ccccc2)c2ccccc2)C(=O)N1CN1CCN(c2cccc(Cl)c2)CC1`, the inhibition constant (Ki) in experiment [1] is 49.4 nM; in experiment [2] it was above 1000 nM; in experiment [3], 392 nM.

For `O=C1CC(=C(c2ccccc2)c2ccccc2)C(=O)N1CN1CCN(c2ccccc2)CC1`, the Ki in experiment [1] is 98 nM; in experiment [2], above 1000 nM; in experiment [3] it was above 1000 nM.

Take `O=C1CC(=C(c2ccccc2)c2ccccc2)C(=O)N1CCN1CCN(c2cccc(Cl)c2)CC1`: the Ki in experiment [1], in experiment [2] and in experiment [3] was above 1000 nM throughout.

For the compound `O=C1CC(=C(c2ccccc2)c2ccccc2)C(=O)N1CCCCN1CCN(c2cccc(C(F)(F)F)c2)CC1`, the Ki in experiment [1] was found to be 15.8 nM; in experiment [2], 689 nM; in experiment [3], 60.5 nM.

For the compound `O=C1CC(=C(c2ccccc2)c2ccccc2)C(=O)N1CCN1CCN(c2ccccc2)CC1`, the Ki in experiment [1] is above 1000 nM; in experiment [2], above 1000 nM; in experiment [3], 214 nM.

With `O=C1CC(=C(c2ccccc2)c2ccccc2)C(=O)N1CCCN1CCN(c2cccc(Cl)c2)CC1`, the Ki in experiment [1] was 127 nM; in experiment [2], 801 nM; in experiment [3] it was 39.2 nM.

For `COc1ccccc1N1CCN(CCCCN2C(=O)CC(=C(c3ccccc3)c3ccccc3)C2=O)CC1`, the Ki is 13.4 nM in experiment [1], above 1000 nM in experiment [2] and 14.4 nM in experiment [3].

As to `O=C1CC(=C(c2ccccc2)c2ccccc2)C(=O)N1CCCCN1CCN(c2cccc(Cl)c2)CC1`, the Ki in experiment [1] came out at 39.3 nM; in experiment [2], 367 nM; in experiment [3], 16.4 nM.

Consider `O=C1CC(=C(c2ccccc2)c2ccccc2)C(=O)N1CN1CCN(c2ccc(F)cc2)CC1`, for which the Ki was above 1000 nM in experiment [1], above 1000 nM in experiment [2] and 746 nM in experiment [3].

In the case of `O=C1CC(=C(c2ccccc2)c2ccccc2)C(=O)N1CCCCN1CCN(c2ccc(F)cc2)CC1`, the inhibition constant (Ki) in experiment [1] is 3.3 nM; in experiment [2] it was 351 nM; in experiment [3], 51.8 nM. Moreover, the Activity entry in experiment [5] was “Agonist”.

Take `COc1ccccc1N1CCN(CCCN2C(=O)CC(=C(c3ccccc3)c3ccccc3)C2=O)CC1`: the Ki in experiment [1] was 665 nM; in experiment [2], 156 nM; in experiment [3], 8.1 nM.

Source of the values: ChEMBL document CHEMBL1131313, “1-[omega-(4-arylpiperazin-1-yl)alkyl]-3-diphenylmethylene-2,5- pyrrolidinediones as 5-HT1A receptor ligands: study of the steric requirements of the terminal amide fragment on 5-HT1A affinity/selectivity” (Bioorg Med Chem Lett, 1998).
